Laboratory results from patent publication US12077503B2, “Substituted cyclic amides and their use as herbicides” (FMC CORPORATION, priority 2015, dated 2024).

Columns and labels:
Assay in all cases: Test C preemergence
Format in all cases: in vivo
[1] = test system: oilseed rape (Brassica napus); settings: for Plant response rating, Oilseed Rape: scale 0 to 100, 0 no effect, 100 complete control
Method in brief: (§1)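 Herbicidal effect, applied preemergence to sown seeds or postemergence to 1- to 4-leaf plants, was scored visually 13 to 15 d after application, 0 to 100 versus controls.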

[2] = test system: waterhemp (common waterhemp, Amaranthus rudis); settings: for Plant response rating, Waterhemp: scale 0 to 100, 0 no effect, 100 complete control
Method in brief: as §1

[3] = test system: ryegrass, Italian (Italian ryegrass, Lolium multiflorum); settings: for Plant response rating, Ryegrass, Italian: scale 0 to 100, 0 no effect, 100 complete control
Method in brief: as §1

[4] = test system: corn (Zea mays); settings: for Plant response rating, Corn: scale 0 to 100, 0 no effect, 100 complete control
Method in brief: as §1

[5] = test system: blackgrass (Alopecurus myosuroides); settings: for Plant response rating, Blackgrass: scale 0 to 100, 0 no effect, 100 complete control
Method in brief: as §1

[6] = test system: Galium (catchweed bedstraw, Galium aparine); settings: for Plant response rating, Galium: scale 0 to 100, 0 no effect, 100 complete control
Method in brief: as §1

[7] = test system: velvetleaf (Abutilon theophrasti); settings: for Plant response rating, Velvetleaf: scale 0 to 100, 0 no effect, 100 complete control
Method in brief: as §1

[8] = test system: crabgrass, large (large crabgrass, Digitaria sanguinalis); settings: for Plant response rating, Crabgrass, Large: scale 0 to 100, 0 no effect, 100 complete control
Method in brief: as §1

[9] = test system: morningglory (Ipomoea coccinea); settings: for Plant response rating, Morningglory: scale 0 to 100, 0 no effect, 100 complete control
Method in brief: as §1

[10] = test system: ragweed (common ragweed, Ambrosia elatior); settings: for Plant response rating, Ragweed: scale 0 to 100, 0 no effect, 100 complete control
Method in brief: as §1

[11] = test system: pigweed (Amaranthus retroflexus); settings: for Plant response rating, Pigweed: scale 0 to 100, 0 no effect, 100 complete control
Method in brief: as §1

[12] = test system: lambsquarters (Chenopodium album); settings: for Plant response rating, Lambsquarters: scale 0 to 100, 0 no effect, 100 complete control
Method in brief: as §1

[13] = test system: barnyardgrass (Echinochloa crus-galli); settings: for Plant response rating, Barnyardgrass: scale 0 to 100, 0 no effect, 100 complete control
Method in brief: as §1

[14] = test system: wheat (winter wheat, Triticum aestivum); settings: for Plant response rating, Wheat: scale 0 to 100, 0 no effect, 100 complete control
Method in brief: as §1

[15] = test system: johnsongrass (Sorghum halepense); settings: for Plant response rating, Johnsongrass: scale 0 to 100, 0 no effect, 100 complete control
Method in brief: as §1

[16] = test system: nutsedge, yellow (yellow nutsedge, Cyperus esculentus); settings: for Plant response rating, Nutsedge, Yellow: scale 0 to 100, 0 no effect, 100 complete control
Method in brief: as §1

[17] = test system: foxtail, giant (giant foxtail, Setaria faberii); settings: for Plant response rating, Foxtail, Giant: scale 0 to 100, 0 no effect, 100 complete control
Method in brief: as §1

[18] = test system: soybean (Glycine max); settings: for Plant response rating, Soybean: scale 0 to 100, 0 no effect, 100 complete control
Method in brief: as §1

[19] = 31 g ai/ha, 0 is no effect, 100 is complete control

CN1CC(c2cccc(OC(F)F)c2)C(C(=O)Nc2ccccc2S(C)(=O)=O)C1=O (stereo not drawn) [Compound 523]
35: Plant response rating, Morningglory ([9]; 62 g ai/ha) | Plant response rating, Morningglory ([9]; 250 g ai/ha)
70: Plant response rating, Ragweed ([10]; 250 g ai/ha) | Plant response rating, Lambsquarters ([12]; 62 g ai/ha) | Plant response rating, Lambsquarters ([12]; 125 g ai/ha) | Plant response rating, Johnsongrass ([15]; 250 g ai/ha)
30: Plant response rating, Oilseed Rape ([1]; 125 g ai/ha) | Plant response rating, Velvetleaf ([7]; 125 g ai/ha) | Plant response rating, Wheat ([14]; 62 g ai/ha) | Plant response rating, Johnsongrass ([15]; 62 g ai/ha) | Plant response rating, Soybean ([18]; 125 g ai/ha)
60: Plant response rating, Oilseed Rape ([1]; 250 g ai/ha) | Plant response rating, Johnsongrass ([15]; 125 g ai/ha)
5: Plant response rating, Ryegrass, Italian ([3]; 62 g ai/ha) | Plant response rating, Ryegrass, Italian ([3]; 125 g ai/ha) | Plant response rating (scale of 0 to 100), Ragweed [10, 19]
85: Plant response rating, Corn ([4]; 250 g ai/ha) | Plant response rating (scale of 0 to 100), Foxtail, Giant [17, 19]
45: Plant response rating, Velvetleaf ([7]; 250 g ai/ha) | Plant response rating, Soybean ([18]; 250 g ai/ha)
20: Plant response rating, Ryegrass, Italian ([3]; 250 g ai/ha) | Plant response rating, Corn ([4]; 62 g ai/ha) | Plant response rating, Blackgrass ([5]; 125 g ai/ha) | Plant response rating (scale of 0 to 100), Morningglory [9, 19] | Plant response rating (scale of 0 to 100), Lambsquarters [12, 19]
80: Plant response rating, Waterhemp ([2]; 250 g ai/ha) | Plant response rating, Galium ([6]; 62 g ai/ha) | Plant response rating, Galium ([6]; 125 g ai/ha) | Plant response rating, Galium ([6]; 250 g ai/ha) | Plant response rating, Wheat ([14]; 250 g ai/ha)
100: Plant response rating, Crabgrass, Large ([8]; 125 g ai/ha) | Plant response rating, Pigweed ([11]; 62 g ai/ha) | Plant response rating, Barnyardgrass ([13]; 250 g ai/ha)
90: Plant response rating, Blackgrass ([5]; 250 g ai/ha) | Plant response rating (scale of 0 to 100), Crabgrass, Large [8, 19] | Plant response rating, Pigweed ([11]; 125 g ai/ha) | Plant response rating, Pigweed ([11]; 250 g ai/ha) | Plant response rating, Foxtail, Giant ([17]; 62 g ai/ha)
0: Plant response rating (scale of 0 to 100), Oilseed Rape [1, 19] | Plant response rating, Oilseed Rape ([1]; 62 g ai/ha) | Plant response rating (scale of 0 to 100), Ryegrass, Italian [3, 19] | Plant response rating (scale of 0 to 100), Corn [4, 19] | Plant response rating (scale of 0 to 100), Blackgrass [5, 19] | Plant response rating, Blackgrass ([5]; 62 g ai/ha) | Plant response rating (scale of 0 to 100), Galium [6, 19] | Plant response rating (scale of 0 to 100), Velvetleaf [7, 19] | Plant response rating, Velvetleaf ([7]; 62 g ai/ha) | Plant response rating (scale of 0 to 100), Wheat [14, 19] | Plant response rating (scale of 0 to 100), Johnsongrass [15, 19] | Plant response rating (scale of 0 to 100), Nutsedge, Yellow [16, 19] | Plant response rating, Nutsedge, Yellow ([16]; 62 g ai/ha) | Plant response rating, Nutsedge, Yellow ([16]; 125 g ai/ha)
25: Plant response rating, Morningglory ([9]; 125 g ai/ha) | Plant response rating, Soybean ([18]; 62 g ai/ha)
65: Plant response rating, Waterhemp ([2]; 62 g ai/ha) | Plant response rating, Waterhemp ([2]; 125 g ai/ha) | Plant response rating, Corn ([4]; 125 g ai/ha) | Plant response rating, Lambsquarters ([12]; 250 g ai/ha) | Plant response rating (scale of 0 to 100), Barnyardgrass [13, 19]
98: Plant response rating, Crabgrass, Large ([8]; 250 g ai/ha) | Plant response rating, Barnyardgrass ([13]; 125 g ai/ha) | Plant response rating, Foxtail, Giant ([17]; 125 g ai/ha) | Plant response rating, Foxtail, Giant ([17]; 250 g ai/ha)
15: Plant response rating, Ragweed ([10]; 62 g ai/ha)
95: Plant response rating, Crabgrass, Large ([8]; 62 g ai/ha) | Plant response rating, Barnyardgrass ([13]; 62 g ai/ha)
75: Plant response rating (scale of 0 to 100), Pigweed [11, 19]
40: Plant response rating, Ragweed ([10]; 125 g ai/ha) | Plant response rating, Nutsedge, Yellow ([16]; 250 g ai/ha)
10: Plant response rating (scale of 0 to 100), Soybean [18, 19]
55: Plant response rating (scale of 0 to 100), Waterhemp [2, 19]
50: Plant response rating, Wheat ([14]; 125 g ai/ha)
